Laboratory results taken from the supplement of paper PMC10307832.

Key:
Experiment in all cases: relative viability (nuclei count vs DMSO), 5 days (fraction); higher = more cells survive
[1] = tested on: BEN
Outline: (§1)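 Lung cancer cell lines in 1536-well plates were dosed by pin tool the day after seeding, either with one drug alone or with a fixed anchor-drug dose plus five library-drug doses (not always all listed) in √10 steps. After 5 days, cells were fixed and their nuclei stained in one step (final 0.05% Triton X-100, 1% formaldehyde, 1 ug/ml Hoechst), then counted on 4× images. Relative viability is the nuclei count in treated wells divided by that in vehicle wells. Values are medians of duplicate plates.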

[2] = tested on: NCI-H1915
Outline: as §1

[3] = tested on: CAL-12T
Outline: as §1

[4] = tested on: NCI-H2126
Outline: as §1

[5] = tested on: LOU-NH91
Outline: as §1

[6] = tested on: NCI-H838
Outline: as §1

[7] = tested on: SW 1573
Outline: as §1

[8] = tested on: HCC-78
Outline: as §1

[9] = tested on: NCI-H1651
Outline: as §1

[10] = tested on: HOP-62
Outline: as §1

[11] = tested on: NCI-H3122
Outline: as §1

[12] = tested on: 201T
Outline: as §1

[13] = tested on: NCI-H1355
Outline: as §1

[14] = tested on: NCI-H1563
Outline: as §1

[15] = tested on: NCI-H650
Outline: as §1

[16] = tested on: NCI-H2347
Outline: as §1

[17] = tested on: SK-LU-1
Outline: as §1

[18] = tested on: LCLC-97TM1
Outline: as §1

[19] = tested on: NCI-H322M
Outline: as §1

[20] = tested on: NCI-H441
Outline: as §1

CN1CCN(CCOc2cc(OC3CCOCC3)c3c(Nc4c(Cl)ccc5c4OCO5)ncnc3c2)CC1 [Saracatinib] + CC(C)C[C@H](NC(=O)[C@H](Cc1ccccc1)NC(=O)c1cnccn1)B(O)O [Bortezomib] (partner 0.002 µM) showed a relative viability ([1]; first compound 0.02 µM) of 0.928, a relative viability ([1]; first compound 0.2 µM) of 0.695 and a relative viability ([1]; first compound 0.6325 µM) of 0.889. The relative viability ([1]; first compound 2 µM) was 0.573, the relative viability ([2]; first compound 0.02 µM) was 0.959 and the relative viability ([2]; first compound 0.2 µM) was 0.813. For the same molecule, the relative viability ([2]; first compound 0.6325 µM) was 0.978, the relative viability ([2]; first compound 2 µM) was 0.886 and the relative viability ([3]; first compound 0.02 µM) was 0.944. The relative viability ([3]; first compound 0.2 µM) was 0.949, the relative viability ([3]; first compound 0.6325 µM) was 1.24 and the relative viability ([3]; first compound 2 µM) was 0.639. For the same molecule, the relative viability ([4]; first compound 0.02 µM) was 1.09, the relative viability ([4]; first compound 0.2 µM) was 1.02 and the relative viability ([4]; first compound 0.6325 µM) was 1.11. It also gave a relative viability ([4]; first compound 2 µM) of 0.996, a relative viability ([5]; first compound 0.02 µM) of 0.538 and a relative viability ([5]; first compound 0.2 µM) of 0.457. It also gave a relative viability ([5]; first compound 0.6325 µM) of 0.521, a relative viability ([5]; first compound 2 µM) of 0.533 and a relative viability ([6]; first compound 0.02 µM) of 0.78. For the same molecule, the relative viability ([6]; first compound 0.2 µM) was 0.702, the relative viability ([6]; first compound 0.6325 µM) was 0.482 and the relative viability ([6]; first compound 2 µM) was 0.431. It also gave a relative viability ([7]; first compound 0.02 µM) of 0.997, a relative viability ([7]; first compound 0.2 µM) of 0.906 and a relative viability ([7]; first compound 0.6325 µM) of 0.955. The relative viability ([7]; first compound 2 µM) was 0.933, the relative viability ([8]; first compound 0.02 µM) was 0.505 and the relative viability ([8]; first compound 0.2 µM) was 0.513. The relative viability ([8]; first compound 0.6325 µM) was 0.583, the relative viability ([8]; first compound 2 µM) was 0.357 and the relative viability ([9]; first compound 0.02 µM) was 0.962. The relative viability ([9]; first compound 0.2 µM) was 0.775, the relative viability ([9]; first compound 0.6325 µM) was 1 and the relative viability ([9]; first compound 2 µM) was 0.844. The relative viability ([10]; first compound 0.02 µM) was 0.715, the relative viability ([10]; first compound 0.2 µM) was 0.718 and the relative viability ([10]; first compound 0.6325 µM) was 0.692. For the same molecule, the relative viability ([10]; first compound 2 µM) was 1.06, the relative viability ([11]; first compound 0.02 µM) was 1.05 and the relative viability ([11]; first compound 0.6325 µM) was 0.964. It also gave a relative viability ([11]; first compound 2 µM) of 0.815, a relative viability ([12]; first compound 0.02 µM) of 1.07 and a relative viability ([12]; first compound 0.2 µM) of 1. The relative viability ([12]; first compound 0.6325 µM) was 1.04, the relative viability ([12]; first compound 2 µM) was 0.848 and the relative viability ([13]; first compound 0.02 µM) was 1.18. It also gave a relative viability ([13]; first compound 0.2 µM) of 1.15, a relative viability ([13]; first compound 0.6325 µM) of 1.44 and a relative viability ([13]; first compound 2 µM) of 1.17. For the same molecule, the relative viability ([14]; first compound 0.02 µM) was 0.857, the relative viability ([14]; first compound 0.2 µM) was 0.713 and the relative viability ([14]; first compound 0.6325 µM) was 0.707. The relative viability ([14]; first compound 2 µM) was 0.712, the relative viability ([15]; first compound 0.02 µM) was 0.925 and the relative viability ([15]; first compound 0.2 µM) was 0.751. The relative viability ([15]; first compound 0.6325 µM) was 0.947, the relative viability ([15]; first compound 2 µM) was 0.799 and the relative viability ([16]; first compound 0.02 µM) was 1.01. It also gave a relative viability ([16]; first compound 0.2 µM) of 0.921, a relative viability ([16]; first compound 0.6325 µM) of 1.2 and a relative viability ([16]; first compound 2 µM) of 0.893. For the same molecule, the relative viability ([17]; first compound 0.02 µM) was 1.31, the relative viability ([17]; first compound 0.2 µM) was 1.19 and the relative viability ([17]; first compound 0.6325 µM) was 0.829. For the same molecule, the relative viability ([17]; first compound 2 µM) was 0.735, the relative viability ([18]; first compound 0.02 µM) was 0.786 and the relative viability ([18]; first compound 0.6325 µM) was 0.995. The relative viability ([18]; first compound 2 µM) was 0.523, the relative viability ([19]; first compound 0.02 µM) was 1.23 and the relative viability ([19]; first compound 0.2 µM) was 1.14. It also gave a relative viability ([19]; first compound 0.6325 µM) of 1.23, a relative viability ([19]; first compound 2 µM) of 0.988 and a relative viability ([20]; first compound 0.02 µM) of 0.451. For the same molecule, the relative viability ([20]; first compound 0.2 µM) was 0.562, the relative viability ([20]; first compound 0.6325 µM) was 1.03 and the relative viability ([20]; first compound 2 µM) was 0.831.
